US9242988B2, “2′-cyano substituted nucleoside derivatives and methods of use thereof for the treatment of viral diseases” (Merck Sharp & Dohme Corp., priority 2012, dated 2016)
Where two headings read alike, the source gives them in different places.

Test system: HCV replicon cells (1b)
Test: Cell-Based HCV Replicon Assay
Method: To measure cell-based anti-HCV activity of selected compounds of the present invention, replicon cells were seeded at 5000 cells/well in 96-well collagen I-coated Nunc plates in the presence of the test compound. Various concentrations of test compound, typically in 10 serial 2-fold dilutions, were added to the assay mixture, with the starting concentration ranging from 250 μM to 1 μM. The final concentration of dimethylsulfoxide was 0.5%, fetal bovine serum was 5%, in the assay media. Cells were harvested on day 3 by the addition of 1× cell lysis buffer (Ambion cat #8721). The replicon RNA level was measured using real time PCR (Taqman assay). The amplicon was located in 5B. The PCR primers were: 5B.2F, […] (SEQ ID. NO. 1); 5B.2R, […] (SEQ ID. NO. 2); the probe sequence was FAM-labeled […] (SEQ ID. NO. 3). GAPDH RNA was used as endogenous control and was amplified in the same reaction as NS5B (multiplex PCR) using primers and VIC-labeled probe recommended by the manufacturer (PE Applied Biosystem). The real-time RT-PCR reactions were run on ABI PRISM 7900HT Sequence Detection System using the following program: 48° C. for 30 minutes, 95° C. for 10 minutes, 40 cycles of 95° C. for 15 sec, 60° C. for 1 minute. The ΔCT values (CT5B-CTGAPDH) were plotted against the concentration of test compound and fitted to the sigmoid dose-response model using XLfit4 (MDL). […] Alternatively, to quantitate the absolute amount of replicon RNA, a standard curve was established by including serially diluted T7 transcripts of replicon RNA in the Taqman assay. All Taqman reagents were from PE Applied Biosystems. Such an assay procedure was described in detail in e.g. Malcolm et al., Antimicrobial Agents and Chemotherapy 50: 1013-1020 (2006).

[1] = Hepatitis C virus, 72 h, read-out: 1b EC50
[2] = Hepatitis C virus, 72 h, replicon RNA level by real time PCR (Taqman), cells harvested on day 3; read-out: 1b EC50
[3] = replicon RNA level by real time PCR (Taqman), cells harvested on day 3; read-out: 1b EC50

In the case of CC(C)OC(=O)[C@H](C)NP(=O)(OC[C@H]1O[C@@H](c2ccc3c(N)ncnn23)[C@](C)(C#N)[C@@H]1O)Oc1ccccc1 (single isomer, unassigned) [Compound 11], the EC50 [1] is reported as 35 µM.
CC(C)OC(=O)COP(=O)(N[C@@H](C)C(=O)OC(C)C)OC[C@H]1O[C@@H](c2ccc3c(N)ncnn23)[C@](C)(C#N)[C@@H]1O (single isomer, unassigned) [Compound 12] was tested, and the EC50 [2] was > 100 µM.
CC(C)OC(=O)[C@H](C)NP(=O)(OC[C@H]1O[C@@H](c2cnc3c(N)ncnn23)[C@](C)(C#N)[C@@H]1O)Oc1ccccc1 (single isomer, unassigned) [Compound 14] was tested, and the EC50 [1] was > 100 µM.
With CC(C)OC(=O)[C@H](C)NP(=O)(OC[C@H]1O[C@@H](c2cnc3c(N)ncnn23)[C@](C)(C#N)[C@@H]1O)Oc1ccccc1 (single isomer, unassigned) [Compound 15] the EC50 (read-out: 1b EC50; replicon RNA level by real time PCR (Taqman), cells harvested on day 3) was > 100 µM.
CC(C)(C)COP1(=O)OC[C@H]2O[C@@H](c3ccc4c(N)ncnn34)[C@](C)(C#N)[C@@H]2O1 (single isomer, unassigned) [Compound 18] showed an EC50 [2] of 33 µM.
CC(C)(C)COP1(=O)OC[C@H]2O[C@@H](c3ccc4c(N)ncnn34)[C@](C)(C#N)[C@@H]2O1 (single isomer, unassigned) [Compound 19] gave an EC50 [3] of 46 µM.
With CC(C)OP1(=O)OC[C@H]2O[C@@H](c3cnc4c(N)ncnn34)[C@](C)(C#N)[C@@H]2O1 (single isomer, unassigned) [Compound 20] the EC50 [2] was 77 µM.
With CC(C)OP1(=O)OC[C@H]2O[C@@H](c3cnc4c(N)ncnn34)[C@](C)(C#N)[C@@H]2O1 (single isomer, unassigned) [Compound 21] the EC50 [3] was > 100 µM.
